Test results published in US5753648A, “Tricyclic benzazepine vasopressin antagonists” (American Cyanamid Company, priority 1996, dated 1998).
Counter-ions that a name gives are not always drawn.

Legend:
[1] = molecular target: T1, Rat Kidney Medullary V2 Receptors (Rattus norvegicus, UniProt Q00788); assay: biochemical; format: binding
T1 construct: Medullary tissues from rat kidneys are dissected out; from tissue; host or cells: rat kidney medulla membranes
Procedure: Binding Assay to Rat Kidney Medullary V2 Receptors
Medullary tissues from rat kidneys are dissected out, cut into small pieces and soaked in a […] sodium chloride solution containing 1.0 mM EDTA with many changes of the liquid phase, until the solution is clear of blood. The tissue is homogenized in a 0.25M sucrose solution containing 1.0 mM EDTA and 0.1 mM PMSF using a Potter-Elvehjem homogenizer with a teflon pestle. The homogenate is filtered through several layers (4 layers) of cheese cloth. The filtrate is rehomogenized using a dounce homogenizer, with a tight fitting pestle. The final homogenate is centrifuged at 1500×g for 15 min. The nuclear pellet is discarded and the supernatant fluid recentrifuged at 40,000×g for 30 min. The resulting pellet formed contains a dark inner part with the exterior, slightly pink. The pink outer part is suspended in a small amount of 50.0 mM Tris.HCl buffer, pH 7.4. The protein content is determined by the Lowry's method (Lowry et al, J. Biol. Chem., 1953). The membrane suspension is stored at -70° C., in 50.0 mM Tris.HCl, containing 0.2% inactivated BSA and 0.1 mM PMSF in aliquots of 1.0 ml containing 10.0 mg protein per ml of suspension until use in subsequent binding experiments.
For binding experiments, the following is added in μl volume to wells of a 96 well format of a microtiter plate: 100.0 μl of 100.0 mM Tris.HCl buffer containing 0.2% heat inactivated BSA, 10.0 mM MgCl2 and a mixture of protease inhibitors: leupeptin, 1.0 mg %; aprotinin, 1.0 mg %; 1,10-phenanthroline, 2.0 mg %; trypsin inhibitor, 10.0 mg % and 0.1 mM PMSF, 20.0 μl of [^3 H] Arginine^8, vasopressin (S.A. 75.0 Ci/mmole) at 0.8 nM and the reaction initiated by the addition of 80.0 μl of tissue membranes (200.0 μg tissue protein). The plates are left undisturbed on the bench top for 120 min. to reach equilibrium. Non-specific binding is assessed in the presence of 1.0 μM of unlabeled ligand, added in 20 μl volume. For test compounds, these are solubilized in 50% dimethylsulfoxide (DMSO) and added in 20.0 μl volume to a final incubation volume of 200 μl. Upon completion of binding, the content of each well is filtered off, using a Brandel® cell Harvester (Gaithersburg, Md.). The radioactivity trapped on the filter disk by the ligand-receptor complex is assessed by liquid scintillation counting in a Packard LS Counter, with an efficiency of 65% for tritium. The data are analyzed for IC50 values by the LUNDON-2 program for competition (LUNDON SOFTWARE, Ohio).

[2] = molecular target: T2, oxytocin receptors (Rattus norvegicus, UniProt P70536); assay: Oxytocin Receptor Binding; settings: for IC50: rat uterine membranes, [3H]oxytocin
T2 sequence (P70536 1-388): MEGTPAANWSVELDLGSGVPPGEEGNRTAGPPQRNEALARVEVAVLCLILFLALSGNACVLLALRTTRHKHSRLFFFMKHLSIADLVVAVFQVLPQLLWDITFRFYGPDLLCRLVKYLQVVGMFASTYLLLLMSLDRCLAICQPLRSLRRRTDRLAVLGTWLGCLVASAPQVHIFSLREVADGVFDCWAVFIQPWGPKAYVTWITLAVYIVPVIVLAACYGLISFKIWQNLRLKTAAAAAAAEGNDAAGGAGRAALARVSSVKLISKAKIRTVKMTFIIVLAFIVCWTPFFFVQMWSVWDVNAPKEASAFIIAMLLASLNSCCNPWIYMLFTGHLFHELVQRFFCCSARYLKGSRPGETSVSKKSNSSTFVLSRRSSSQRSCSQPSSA

[3] = molecular target: Rat Hepatic V1 Receptors (Rattus norvegicus, UniProt P30560); assay: Binding Assay to Rat Hepatic V1 Receptors
Chain of Rat Hepatic V1 Receptors (P30560 whole entry): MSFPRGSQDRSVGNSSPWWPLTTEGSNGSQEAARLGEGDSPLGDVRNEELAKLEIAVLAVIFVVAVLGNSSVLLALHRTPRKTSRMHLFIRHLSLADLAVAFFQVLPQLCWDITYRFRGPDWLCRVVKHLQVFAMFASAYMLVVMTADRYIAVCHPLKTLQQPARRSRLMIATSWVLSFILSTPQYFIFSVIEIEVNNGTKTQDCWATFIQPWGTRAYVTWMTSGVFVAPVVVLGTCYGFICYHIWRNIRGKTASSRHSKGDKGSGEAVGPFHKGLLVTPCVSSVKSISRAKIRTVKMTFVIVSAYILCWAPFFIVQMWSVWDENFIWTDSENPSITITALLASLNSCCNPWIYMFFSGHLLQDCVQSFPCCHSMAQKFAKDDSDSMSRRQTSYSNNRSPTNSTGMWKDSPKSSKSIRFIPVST
Procedure: Binding Assay to Rat Hepatic V1 Receptors
Rat liver plasma membranes expressing the vasopressin V1 receptor subtypes are isolated by sucrose density gradient according to the method described by Lesko et al, (1973). These membranes are quickly suspended in 50.0 mM Tris.HCl buffer, pH 7.4, containing 0.2% bovine serum albumin (BSA) and 0.1 mM phenylmethylsulfonylfluoride (PMSF) and kept frozen at -70° C. until used in subsequent binding experiments. For binding experiments, the following is added to the wells of a ninety-six well format microtiter plate: 100 μl of 100.0 mM Tris.HCl buffer containing 10.0 mM MgCl2, 0.2% heat inactivated BSA and a mixture of protease inhibitors: leupeptin, 1.0 mg %; aprotinin, 1.0 mg %; 1,10-phenanthroline,2.0 mg %; trypsin inhibitor, 10.0 mg % and 0.1 mM PMSF, 20.0 μl of [phenylalanyl-3,4,5,-^3 H] vaso-pressin (S.A. 45.1 Ci/mmole) at 0.8 nM, and the reaction initiated by the addition of 80 μl of tissue membranes containing 20 μg of tissue protein. The plates are kept undisturbed on the bench top at room temperature for 120 min. to reach equilibrium. Non-specific samples are assayed in the presence of 0.1 μm of the unlabeled antagonist phenylalanylvasopressin, added in 20.0 μl volume. For test compounds, these are solubilized in 50% dimethylsulfoxide (DMSO) and added in 20.0 μl volume to a final incubation volume of 200 μl. Upon completion of binding, the content of each well is filtered off, using a Brandel® cell Harvester (Gaithersburg, Md.). The radioactivity trapped on the filter disk by the ligand-receptor complex is assessed by liquid scintillation counting in a Packard LS Counter, with an efficiency of 65% for tritium. The data are analyzed for IC50 values by the LUNDON-2 program for competition (LUNDON SOFTWARE, Ohio).

[4] = test system: Endogenous Arginine Vasopressin Antidiuretic (V2) Response in Conscious Rats; assay: Antagonism of Endogenous Arginine Vasopressin Antidiuretic (V2) Response in Conscious Rats (urine volume); format: in vivo, rat (Sprague-Dawley); settings: 10 mg/kg rat p.o.; 4 hour collection
Source text: Effects on the Antagonism of Endogenous Arginine Vasopressin Antidiuretic (V2) Response in Conscious Rats with Free Access to Water Drinking Before but not During the Experiment:
Male or female normotensive Sprague-Dawley rats (Charles River Laboratories, Inc., Kingston, N.Y.) of 400-450 g body weight were supplied with Laboratory Rodent Feed #5001 (PMI Feeds, Inc., Richmond, Id.) and water ad libitum. On the day of test, rats were placed individually into metabolic cages equipped with stainless steel screens (to separate the feces from the urine) and funnels for collection of urine. Vehicle or reference agent was given at various oral doses. During the test, rats were not provided with water or food. Urine was collected for four hours after dosing of the test compound. At the end of four hours, urine volume was measured. Urinary osmolality was determined using a Fiske One-Ten Osmometer (Fiske Associates, Norwood, Mass. 02062) or an Advanced CRYOMATIC Osmometer, Model 3C2 (Advanced Instruments, Norwood, Mass.). Determinations of Na^+, K^+ and Cl^- ion were carried out using ion specific electrodes in a Beckman SYNCHRON EL-ISE Electrolyte System analyzer. In the following results, increased urine volume and decreased osmolality relative to AVP-control indicates activity.

T1 sequence (Q00788 whole entry): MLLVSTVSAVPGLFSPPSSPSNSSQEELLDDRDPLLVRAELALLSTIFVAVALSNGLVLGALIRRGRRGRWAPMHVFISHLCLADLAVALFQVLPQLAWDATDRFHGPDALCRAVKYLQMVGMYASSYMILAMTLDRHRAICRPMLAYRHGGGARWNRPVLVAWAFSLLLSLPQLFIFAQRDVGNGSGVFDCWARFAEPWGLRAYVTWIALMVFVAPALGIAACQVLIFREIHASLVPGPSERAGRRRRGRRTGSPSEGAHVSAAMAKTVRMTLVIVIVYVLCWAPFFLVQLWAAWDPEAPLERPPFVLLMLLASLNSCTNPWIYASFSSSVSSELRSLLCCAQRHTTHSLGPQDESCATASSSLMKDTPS

| Structure (SMILES) | IC50 [1] | inhibition at 2.5 µM ([2]; dose 2.5 μM) | IC50 [2] | IC50 [3] | inhibition at 1 µM [2] | inhibition at 10 µM [2] | inhibition at 1 µM ([1]; at 1 μM) | inhibition at 1.25 µM ([2]; dose 1.25 μM) | Urine Volume [4] |
| --- | --- | --- | --- | --- | --- | --- | --- | --- | --- |
| O=C(Nc1ccc(C(=O)N2Cc3cccn3Cc3ccccc32)cc1)c1ccccc1-c1ccc(C(F)(F)F)cc1 [Example 324] | 120 nM | – | – | 420 nM | 45% | – | – | – | – |
| Cc1ncccc1C(=O)Nc1ccc(C(=O)N2Cc3cccn3Cc3ccccc32)cc1 [Example 327, N-[4-(5H-Pyrrolo[2,1-c][1,4]benzodiazepin-10(11H)-ylcarbonyl)phenyl]-2-methylpyridine-3-carboxamide] | 28 nM | – | – | 350 nM | 56% | – | – | – | – |
| Cc1ncccc1C(=O)Nc1ccc(C(=O)N2Cc3cccn3Cc3ccccc32)c(Cl)c1 [Example 328, N-[4-(5H-Pyrrolo[2,1-c][1,4]benzodiazepin-10(11H)-yl-carbonyl)-3-chlorophenyl]-2-methyl-pyridine-3-carboxamide] | 19 nM | – | 570 nM | 3300 nM | – | 85% | – | – | – |
| Cc1ncccc1C(=O)Nc1ccc(C(=O)N2Cc3cccn3Cc3ccccc32)cn1 [Example 329, N-[5-(5H-Pyrrolo[2,1-c][1,4]benzodiazepin-10(11H)-ylcarbonyl]-2-pyridinyl]-2-methylpyridine-3-carboxamide] | 70 nM | – | 190 nM | 310 nM | – | 91% | – | – | – |
| CN(C)c1ncccc1C(=O)Nc1ccc(C(=O)N2Cc3cccn3Cc3ccccc32)cc1 [Example 332, N-[4-(5H-Pyrrolo[2,1-c][1,4]benzodiazepin-10(11H)-ylcarbonyl)phenyl]-2-(dimethylamino)-pyridine-3-carboxamide Hydrochloride] | 3.4 nM | – | 830 nM | 31 nM | – | – | – | – | – |
| O=C(Nc1ccc(C(=O)N2Cc3cccn3Cc3ccccc32)cc1)c1cccnc1Cl [Example 333, N-[4-(5H-Pyrrolo[2,1-c][1,4]benzodiazepin-10(11H)-ylcarbonyl)phenyl]-2-chloropyridine-3-carboxamide] | 410 nM | – | 880 nM | 250 nM | – | 98% | – | – | – |
| CN1CCN(c2ncccc2C(=O)Nc2ccc(C(=O)N3Cc4cccn4Cc4ccccc43)cc2)CC1 [Example 337, N-[4-(5H-pyrrolo[2,1-c][1,4]benzodiazepin-10(11H)-ylcarbonyl)phenyl]-2-(4-methyl-1-piperazinyl)-pyridine-3-carboxamide] | 650 nM | – | – | 1300 nM | 16% | – | – | – | – |
| CN(C)c1ncccc1C(=O)Nc1ccc(C(=O)N2Cc3cccn3Cc3ccccc32)cc1 [Example 338, N-[4-(5H-Pyrrolo[2,1-c][1,4]benzodiazepin-10(11H)-ylcarbonyl)phenyl]-2-(dimethylamino)-pyridine-3-carboxamide] | 4.8 nM | – | 720 nM | 37 nM | – | 98% | – | – | – |
| O=C(Nc1ccc(C(=O)N2Cc3ccc(CN4CCC(N5CCCCC5)CC4)n3Cc3ccccc32)c(Cl)c1)c1ccccc1-c1ccccc1 [Example 373, [4-(3-[1,4]Bipiperidinyl-1'-ylmethyl-5H,11H-pyrrolo[2,1-c][1,4]benzodiazepine-10-carbonyl)-3-chloro-phenyl]-biphenyl-2-carboxylic acid amide] | – | – | – | – | – | – | – | – | 15.6 ml/4 hrs |
| O=C(Nc1ccc(C(=O)N2Cc3ccc(CNC(CO)(CO)CO)n3Cc3ccccc32)c(Cl)c1)c1ccccc1-c1ccccc1 [Example 374, (3-Chloro-4-{3-[(2-hydroxy-1,1-bis-hydroxymethylethylamino)-methyl]-5H,11H-pyrrolo[2,1-c][1,4]benzodiazepine-10-carbonyl}-phenyl)-biphenyl-2-carboxylic acid amide] | – | – | – | – | – | – | – | – | 16.5 ml/4 hrs |

The remaining compounds from weak to strong by IC50 [3], led by results:

| IC50 [1] | inhibition at 2.5 µM ([2]; dose 2.5 μM) | IC50 [2] | IC50 [3] | inhibition at 1 µM [2] | inhibition at 10 µM [2] | inhibition at 1 µM ([1]; at 1 μM) | inhibition at 1.25 µM ([2]; dose 1.25 μM) | Structure (SMILES) | Urine Volume [4] |
| --- | --- | --- | --- | --- | --- | --- | --- | --- | --- |
| 82 nM | 95% | 56 nM | 190 nM | – | – | – | – | O=C(c1ccc(NCc2ccccc2)nc1)N1Cc2cccn2Cc2ccccc21 [Example 273, 10[[6-[(Phenylmethyl)amino]-3-pyridinyl]carbonyl]-10,11-dihydro-5H-pyrrolo[2,1-c][1,4]benzodiazepine] | – |
| 420 nM | – | – | 180 nM | – | 86% | – | – | CC(C)(Oc1ccc(Cl)cc1)C(=O)Nc1ccc(C(=O)N2Cc3cccn3Cc3ccccc32)cc1 [Example 347, N-[4-(5H-Pyrrolo[2,1-c][1,4]benzodiazepin-10(11H)-ylcarbonyl)phenyl]-2-methyl-2-(4-chlorophenyloxy)propionamide] | – |
| 59 nM | – | 105 nM | 88 nM | – | – | – | 96% | O=C(c1ccc(NCc2ccccc2Br)nc1)N1Cc2cccn2Cc2ccccc21 [Example 352] | – |
| – | – | 710 nM | 80 nM | – | 95% | 43% | – | CC(C)(C)Nc1ccc(C(=O)N2Cc3cccn3Cc3ccccc32)cn1 [Example 348] | – |
| 4 nM | – | – | 20 nM | 74% | – | – | – | O=C(Nc1ccc(C(=O)N2Cc3cccn3Cc3ccccc32)cc1)c1ccccc1-c1ccccn1 [Example 341, N-[4-(5H-Pyrrolo[2,1-c][1,4]benzodiazepin-10(11H)-ylcarbonyl)phenyl]-2-(2-pyridinyl)benzamide] | – |
| 34 nM | – | 205 nM | 15 nM | – | 95% | – | – | O=C(c1ccc(NC2CCc3ccccc32)nc1)N1Cc2cccn2Cc2ccccc21 (stereo not shown) [Example 350, 10-[[6-(1-Indanylamino)-3-pyridinyl)carbonyl]-10,11-dihydro-5H-pyrrolo[2,1-c][1,4]benzodiazepine] | – |
